Patent publication US9187467B2, “2-phenyl benzothiazole linked imidazole compounds as potential anticancer agents and process for the preparation thereof” (Council of Scientific and Industrial Research, priority 2012, dated 2015)
Where two headings read alike, the source gives them in different places.

Legend:
Assay type in all cases: cell-based, human
HCT-116 = assay: SRB anticancer assay, colon; conditions: Homo sapiens, HCT-116, 48 h
K-562 = assay: SRB anticancer assay, leukemia; conditions: Homo sapiens, K562; K-562, 48 h
OVCAR-3 = assay: SRB anticancer assay, ovarian; conditions: Homo sapiens, OVCAR-3, 48 h
[1] = system: Prostate cancer cell lines; assay: SRB anticancer assay, panel result
Experimental: (§1) The compounds were evaluated for anticancer activity against sixty human cancer cells derived from nine cancer types (leukemia cell line, non-small-cell lung cell line, colon cell line, CNS cell line, melanoma cell line, ovarian cell line, prostate cell line, renal cancer cell line and breast cancer cell line) as shown in Table 1. For each compound, dose response curves for each cell line were measured at a minimum of five concentrations at 10 fold dilutions. A protocol of 48 h continuous drug exposure was used and a sulforhodamine B (SRB) protein assay was used to estimate cell viability or growth.

[2] = system: Non-small cell lung cancer cell lines; assay: SRB anticancer assay, panel result
Experimental: as §1

Breast cancer cell lines = assay: SRB anticancer assay, panel result
Experimental: as §1

Renal cancer cell lines = assay: SRB anticancer assay, panel result
Experimental: as §1

[3] = system: Leukemia cancer cell lines; assay: SRB anticancer assay, panel result
Experimental: as §1

[4] = system: Ovarian cancer cell lines; assay: SRB anticancer assay, panel result
Experimental: as §1

[5] = system: Melanoma cancer cell lines; assay: SRB anticancer assay, panel result
Experimental: as §1

Colon cancer cell lines = assay: SRB anticancer assay, panel result
Experimental: as §1

CNS cancer cell lines = assay: SRB anticancer assay, panel result
Experimental: as §1

SK-MEL-5 = assay: SRB anticancer assay, melanoma; conditions: Homo sapiens, SK-MEL-5, 48 h
SF-295 = assay: SRB anticancer assay, CNS; conditions: Homo sapiens, SF-295, 48 h
MALME-3M = assay: SRB anticancer assay, melanoma; conditions: Homo sapiens, Malme-3M, 48 h
KM12 = assay: SRB anticancer assay, colon; conditions: Homo sapiens, KM12, 48 h
A549/ATCC = assay: SRB anticancer assay, non-small lung; conditions: Homo sapiens, 48 h
HS 578T = assay: SRB anticancer assay, breast; conditions: Homo sapiens, 48 h
UACC-257 = assay: SRB anticancer assay, melanoma; conditions: Homo sapiens, UACC-257, 48 h
MDA-MB-231/ATCC = assay: SRB anticancer assay, breast; conditions: Homo sapiens, MDA-MB-231, 48 h, MDA-MB-231/ATCC (row head MDA-MB-), 48 h; read-out: GI50
TK-10 = assay: SRB anticancer assay, renal; conditions: Homo sapiens, TK-10, 48 h
SNB-75 = assay: SRB anticancer assay, CNS; conditions: Homo sapiens, SNB-75, 48 h
HT29 = assay: SRB anticancer assay, colon; conditions: Homo sapiens, HT-29; HT29, 48 h
OVCAR-4 = assay: SRB anticancer assay, ovarian; conditions: Homo sapiens, OVCAR-4, 48 h
NCI/ADR-RES = assay: SRB anticancer assay, ovarian; conditions: Homo sapiens, NCI/ADR-RES, 48 h

## COc1cc(OC)c2sc(-c3ccc(-n4cncc4-c4ccc(OC)c(OC)c4)cc3)nc2c1 [Compound 6e, 2-(4-(5-(3,4-Dimethoxyphenyl)-1H-imidazol-1-yl)phenyl)-5,7-dimethoxybenzo[d]thiazole]
HCT-116
  GI50: 5.48 µM
K-562
  GI50: 5.88 µM
OVCAR-3
  GI50: 3.85 µM
[1]; Homo sapiens, Prostate panel, 50% net cell death, read-out: mean graph midpoint value (MG_MID) of Log10 LC50 (converted)
  LC50: > 100 µM
[1]; Homo sapiens, Prostate panel, read-out: mean graph midpoint value (MG_MID) of Log10 GI50 (converted)
  GI50: 10.2 µM
[1]; Homo sapiens, two prostate cancer cell lines (PC-3, DU-145), exposure at least 48 h, read-out: GI50, range over the panel
  GI50: 3.66 to 27.9 µM
[1]; Prostate panel, total inhibition of net cell growth
  mean graph midpoint value (MG_MID) of log10 TGI: >−4.0
[2]; Homo sapiens, Non-small cell lung panel, 50% net cell death, read-out: mean graph midpoint value (MG_MID) of Log10 LC50 (converted)
  LC50: > 100 µM
[2]; Homo sapiens, Non-small cell lung panel, read-out: mean graph midpoint value (MG_MID) of Log10 GI50 (converted)
  GI50: 22.9 µM
[2]; Homo sapiens, nine Non-small cell lung cancer cell lines, exposure at least 48 h, read-out: GI50, range over the panel
  GI50: 5.26 to 41.8 µM
[2]; Non-small cell lung panel, total inhibition of net cell growth
  mean graph midpoint value (MG_MID) of log10 TGI: −4.01
Breast cancer cell lines; Breast panel, total inhibition of net cell growth
  mean graph midpoint value (MG_MID) of log10 TGI: >−4.0
Breast cancer cell lines; Homo sapiens, Breast panel, 50% net cell death, read-out: mean graph midpoint value (MG_MID) of Log10 LC50 (converted)
  CC50: > 100 µM
Breast cancer cell lines; Homo sapiens, Breast panel, read-out: mean graph midpoint value (MG_MID) of Log10 GI50 (converted)
  GI50: 7.41 µM
Breast cancer cell lines; Homo sapiens, six breast cancer cell lines, exposure at least 48 h, read-out: GI50, range over the panel
  GI50: 3.78 to 28.4 µM
Renal cancer cell lines; Homo sapiens, Renal panel, 50% net cell death, read-out: mean graph midpoint value (MG_MID) of Log10 LC50 (converted)
  CC50: > 100 µM
Renal cancer cell lines; Homo sapiens, Renal panel, read-out: mean graph midpoint value (MG_MID) of Log10 GI50 (converted)
  GI50: 25.1 µM
Renal cancer cell lines; Homo sapiens, eight renal cancer cell lines, exposure at least 48 h, read-out: GI50, range over the panel
  GI50: 2.15 to 3.17 µM
Renal cancer cell lines; Renal panel, total inhibition of net cell growth
  mean graph midpoint value (MG_MID) of log10 TGI: >−4.0
[3]; Homo sapiens, Leukemia panel, 50% net cell death, read-out: mean graph midpoint value (MG_MID) of Log10 LC50 (converted)
  LC50: > 100 µM
[3]; Homo sapiens, Leukemia panel, read-out: mean graph midpoint value (MG_MID) of Log10 GI50 (converted)
  GI50: 16.2 µM
[3]; Homo sapiens, six leukemia cancer cell lines, exposure at least 48 h, read-out: GI50, range over the panel
  GI50: 3.03 to 5.88 µM
[3]; Leukemia panel, total inhibition of net cell growth
  mean graph midpoint value (MG_MID) of log10 TGI: >−4.0
[4]; Homo sapiens, Ovarian panel, 50% net cell death, read-out: mean graph midpoint value (MG_MID) of Log10 LC50 (converted)
  LC50: > 100 µM
[4]; Homo sapiens, Ovarian panel, read-out: mean graph midpoint value (MG_MID) of Log10 GI50 (converted)
  GI50: 29.5 µM
[4]; Homo sapiens, seven ovarian cancer cell lines, exposure at least 48 h, read-out: GI50, range over the panel
  GI50: 3.85 to 56.1 µM
[4]; Ovarian panel, total inhibition of net cell growth
  mean graph midpoint value (MG_MID) of log10 TGI: >−4.0
[5]; Homo sapiens, Melanoma panel, 50% net cell death, read-out: mean graph midpoint value (MG_MID) of Log10 LC50 (converted)
  LC50: > 100 µM
[5]; Homo sapiens, Melanoma panel, read-out: mean graph midpoint value (MG_MID) of Log10 GI50 (converted)
  GI50: 40.7 µM
[5]; Homo sapiens, nine melanoma cancer cell lines, exposure at least 48 h, read-out: GI50, range over the panel
  GI50: 3.61 to 59.8 µM
[5]; Melanoma panel, total inhibition of net cell growth
  mean graph midpoint value (MG_MID) of log10 TGI: >−4.0
Colon cancer cell lines; Colon panel, total inhibition of net cell growth
  mean graph midpoint value (MG_MID) of log10 TGI: >−4.0
Colon cancer cell lines; Homo sapiens, Colon panel, 50% net cell death, read-out: mean graph midpoint value (MG_MID) of Log10 LC50 (converted)
  LC50: > 100 µM
Colon cancer cell lines; Homo sapiens, Colon panel, read-out: mean graph midpoint value (MG_MID) of Log10 GI50 (converted)
  GI50: 25.1 µM
Colon cancer cell lines; Homo sapiens, seven colon cancer cell lines, exposure at least 48 h, read-out: GI50, range over the panel
  GI50: 5.48 to 7.13 µM
CNS cancer cell lines; CNS panel, total inhibition of net cell growth
  mean graph midpoint value (MG_MID) of log10 TGI: −4.06
CNS cancer cell lines; Homo sapiens, CNS panel, 50% net cell death, read-out: mean graph midpoint value (MG_MID) of Log10 LC50 (converted)
  CC50: > 100 µM
CNS cancer cell lines; Homo sapiens, CNS panel, read-out: mean graph midpoint value (MG_MID) of Log10 GI50 (converted)
  GI50: 19.1 µM
CNS cancer cell lines; Homo sapiens, six CNS cancer cell lines, exposure at least 48 h, read-out: GI50, range over the panel
  GI50: 7 to 9.96 µM
SK-MEL-5
  GI50: 3.61 µM
SF-295
  GI50: 7 µM
MALME-3M
  GI50: 59.8 µM
KM12
  GI50: 6.8 µM
A549/ATCC
  GI50: 41.8 µM
HS 578T
  GI50: 9.12 µM
UACC-257
  GI50: > 100 µM
MDA-MB-231/ATCC
  GI50: 28.4 µM
TK-10
  GI50: > 100 µM
SNB-75
  GI50: 7.21 µM
HT29
  GI50: 7.13 µM
OVCAR-4
  GI50: 4.21 µM
NCI/ADR-RES
  GI50: > 100 µM
